# Assay results from patent US20040019026A1, “Compounds useful for treating hypertriglyceridemia” (priority 2000, published 2004).
# Columns and labels:
# [1] = system: patients with rheumatoid arthritis; experiment: Trial in arthritis patients, 1200 mg oral fluasterone daily: HDL levels (Example 5b); type: in vivo, human
# Method: In this trial patients with rheumatoid arthritis were treated for 3 to 12 weeks with 1200 mg oral fluasterone daily. A placebo group was also included.
# [2] = system: patients with Metabolic Syndrome; experiment: Phase I/II buccal tablet study: triglyceride and HDL levels, incl. obese subset (Examples 7 and 8); type: in vivo, human
# Method: The study was a phase I/II randomized, double blind, dose-ranging, placebo-controlled, evaluation of the safety, tolerance, and activity on lipid laboratory markers after transmucosal (buccal) administration of two dose levels (20 mg or 80 mg) of fluasterone (16α-fluoro-5-androsten-17-one) compared to placebo in patients with Metabolic Syndrome. Study treatment consisted of eight weeks of buccal tablet administration of fluasterone or placebo control and subsequent follow-up for two weeks.
# After patient consent had been obtained, patients were screened for eligibility into the study. Following informed consent, screening and laboratory testing, patients entered a six-week dietary run-in phase during which they followed a Step II AHA diet, and discontinued all lipid-lowering agents. At 4 weeks into the dietary run-in phase, qualifying lipid and endocrine laboratory measurements were performed. After the run-in phase, patients were randomized to receive either fluasterone or placebo control. Patients received fluasterone or placebo daily for 8 weeks. Patients were followed for an additional 2 weeks for total study duration of 16 weeks. The dose levels evaluated in this study were either 20 mg or 80 mg buccal tablets of fluasterone or placebo control that were formulated to dissolve between the lower gingival surfaces of the jaw and buccal mucosa of the cheek pouch.
# Fluasterone or placebo equivalent was administered as either one or four buccal tablets. Each buccal tablet contained 16-α-fluoro-5-androsten-17-one, mannitol, crospovidone, magnesium stearate, polyethylene glycol 3350, silica gel and sodium lauryl sulfate. Patients were instructed to ingest water prior to placing the buccal tablets in their mouth. The tablets were held in the mouth without disturbance for approximately 10 minutes. Patients were instructed not to chew or swallow the tablets and not drink or eat for 30 minutes after study drug administration.
# The study consisted of a 6-week dietary run-in phase during which they followed a Step II AHA diet and discontinued all lipid-lowering agents. After the run-in phase, patients who qualified based on lipid and endocrine laboratory measurements at the qualifying visit (week −2) were randomized to receive fluasterone or placebo control. Patients received fluasterone or placebo control daily for 8 weeks. Patients were followed for an additional 2 weeks to collect adverse events and an additional lipid profile for total study duration of 16 weeks.
# Blood samples were collected for lipid determinations at the qualifying visit (week −2), at study day 1, and at weeks 2, 4, 6, 8, and 10.
# There were 8 patients treated with 80 mg fluasterone, 9 with 20 mg fluasterone, 3 patients with 80 mg placebo, and 4 patients with 20 mg placebo.
# The triglyceride level in the 80 mg fluasterone group declined from baseline by 34% at week […] and by 35% at week […]. In the combined placebo group at the corresponding time points the triglyceride levels increased by 6% and 7% respectively.
# [3] = system: hypertriglyceridemic patients; experiment: Hypertriglyceridemic patients with high or low HDL, 1200 mg daily: plasma triglycerides (Example 2); type: in vivo, human; details: for Triglyceride levels: 4 patients with low HDL levels
# Method: Five hypertriglyceridemic patients had high baseline HDL levels (>50 mg/dL, 64.2±8.5, n=10, mean±S.D.) and four hypertriglyceridemic patients had low HDL levels 40.4±4.1, n=8). They were treated as before, as described in Example 1, except they received 1200 mg of 16α-fluoro-5-androsten-17-one daily. Controls were set up so that they received 1200 mg of placebo. The triglyceride concentration in the plasma were measured pretreatment and at the end of the study.
# In those patients with high HDL levels, the triglycerides fell from 330±163 (n=10) to 214±56.1 (n=5). However, in 4 patients with low HDL levels (40.0±4.1), treatment with 1200 mg of 16α-fluoro-5-androsten-17-one daily for 3 to 12 weeks lowered triglyceride levels from 245±55.1 (n=8) to 139±10.6 (n=4), p<0.01.
# [4] = system: male BKS.Cg-m+/+Leprdb mice; experiment: Mortality during treatment of diabetic mice (Example 9); type: in vivo
# [5] = 20 mg buccal daily, Week 2, 4, 6, & 8
# [6] = 80 mg buccal daily, Week 2, 4, 6, & 8
# [7] = obese subset, 80 mg buccal daily, Week 2, 4, 6, and 8
# [8] = obese subset, 80 mg buccal daily, Week 8
# [9] = obese subset, 80 mg buccal, Baseline (−2, 0)
compound,measurement,setting,value
"C[C@]12CCCCC1=CC[C@@H]1[C@@H]2CC[C@]2(C)C(=O)[C@H](F)C[C@@H]12 [fluasterone, 16α-fluoro-5-androsten-17-one]",HDL Levels,"[1]; Combined (20), pretreatment",57.4 ± 14.7
same,HDL Levels,"[1]; Combined, treatment 1200 mg oral daily, 3 to 12 weeks, p < 0.02",46.9 ± 8.9
same,HDL Levels,"[1]; Females (16), pretreatment",59.8 ± 14.6 (16)
same,HDL Levels,"[1]; Females, treatment 1200 mg oral daily, 3 to 12 weeks, p < 0.01",46.8 ± 9.6
same,HDL Levels,"[1]; Males (4), pretreatment",47.0 ± 9.1 (4)
same,HDL Levels,"[1]; Males (4), treatment 1200 mg oral daily, 3 to 12 weeks",47.0 ± 5.8 (4)
same,HDL,[2]; [5],32.6 ± 6.4 (36) mg/dL
same,Triglycerides,[2]; [5],523 ± 311 (36) mg/dL
same,HDL,"[2]; 20 mg buccal daily, Week 8",33.3 ± 6.5 (9) mg/dL
same,Triglycerides,"[2]; 20 mg buccal daily, Week 8",538 ± 285 (9) mg/dL
same,HDL,"[2]; 20 mg buccal, Baseline (−2, 0)",31.6 ± 6.2 (18) mg/dL
same,Triglycerides,"[2]; 20 mg buccal, Baseline (−2, 0)",507 ± 192 (18) mg/dL
same,HDL,[2]; [6],41.1 ± 8.1 (32) mg/dL
same,Triglycerides,[2]; [6],342 ± 111 (32) mg/dL
same,HDL,"[2]; 80 mg buccal daily, Week 8",41.6 ± 9.4 (8) mg/dL
same,Triglycerides,"[2]; 80 mg buccal daily, Week 8",292 ± 92.4 (8) mg/dL
same,Effect on HDL level,"[2]; 80 mg buccal dose, all patients",no apparent decline in HDL level
same,HDL,"[2]; 80 mg buccal, Baseline (−2, 0)",40.8 ± 8.9 (16) mg/dL
same,Triglycerides,"[2]; 80 mg buccal, Baseline (−2, 0)",455 ± 157 (16) mg/dL
same,Reduction of mean triglyceride level compared to baseline,"[2]; 80 mg buccal, mean 8-week level",36%
same,Reduction of mean triglyceride level compared to baseline,"[2]; 80 mg buccal, mean of week 2, 4, 6, & 8",at least 25%
same,Effect on HDL levels,"[2]; obese subset, 80 mg buccal",no decline in HDL levels from baseline
same,HDL,[2]; [7],40.3 ± 6.3 (20) mg/dL
same,Triglycerides,[2]; [7],313 ± 93.7 (20) mg/dL
same,HDL,[2]; [8],40.3 ± 4.6 (5) mg/dL
same,Triglycerides,[2]; [8],307 ± 106 (5) mg/dL
same,HDL,[2]; [9],39.2 ± 7.3 (10) mg/dL
same,Triglycerides,[2]; [9],472 ± 169 (10) mg/dL
same,Decline of triglyceride level from baseline,"[2]; obese subset, 80 mg buccal, week 2, 4, 6, and 8, p=0.0368 vs combined placebo",34%
same,Decline of triglyceride level from baseline,"[2]; obese subset, 80 mg buccal, week 8",35%
same,Triglyceride levels,"[3]; after 1200 mg daily for 3 to 12 weeks, p<0.01",139±10.6
same,Triglyceride levels,[3]; pretreatment,245±55.1
same,Triglycerides,"[3]; patients with high HDL levels (>50 mg/dL), pretreatment",330±163
same,Triglycerides,"[3]; patients with high HDL levels, after 1200 mg daily",214±56.1
same,Mortality (mice died),"[4]; 5 mg/kg, i.p. group, about two weeks later",1 mouse
same,Mortality (mice died),"[4]; 200 mg/kg oral group, about 17 days later",1 mouse
